From US11028080B2, “Substituted pyrimidines as LRKK2 inhibitors” (Denali Therapeutics Inc., priority 2016, dated 2021)

Molecular target: LRRK2 G2019S enzyme (Homo sapiens (Human), UniProt Q5S007, G2019S)
Experiment: LRRK2 G2019S biochemical TR-FRET assay (LRRKtide substrate)
Conditions: 5 nM LRRK2, 134 μM ATP, 60 minute reaction time, 23° C.
Method: Materials: • LRRK2 G2019S enzyme • Substrate (LRRKtide) • ATP • TR-FRET dilution buffer • pLRRKtide antibody • 384-well assay plate • DMSO • Enzyme reaction conditions • 50 mM Tris pH 7.5, 10 mM MgCl2, 1 mM EGTA, 0.01% Brij-35, 2 mM DTT • 5 nM LRRK2 • 134 μM ATP • 60 minute reaction time • 23° C. reaction temperature • 10 μL total reaction volume
Detection reaction conditions • 1×TR-FRET dilution buffer • 10 mM EDTA • 2 nM antibody • 23° C. reaction temperature • 10 μL total reaction volume
Compounds were prepared by initially diluting to 1 mM with DMSO. 35 μL of reference compound solution, 35 μL of test compound solution, and 35 μL HPE were successively added to the source plate (384-well assay plate, Labcyte). The plates were centrifuged at 2500 rpm for 1 minute and sealed in foil. POD was used to perform a 3.162 fold serial dilution and 100 nL of reference compound solution, test compound solution, HPE and ZPE were transferred to assay plates. The assay plate was centrifuged at 2500 rpm for 1 minute, and sealed with foil.
To perform the enzyme reaction, 5 μL of LRRKtide substrate and kinase mixture in assay buffer was added to all wells of the assay plate. The plate was centrifuged to concentrate the mixture at the bottom of the wells. The assay plate was incubated at 23° C. for 20 minutes. Following incubation, 5 μL of 2×ATP in assay buffer was added to each well, and plates were centrifuged to concentrate the mixture at the bottom of the wells. The plate was incubated at 23° C. for 60 minutes.
To perform the detection of the reaction, EDTA completely mixed in TR-FRET dilution buffer was added to antibody reagent. 10 μL of detection reagent was added to all wells of each well of the assay plate and the plate was centrifuged to concentrate the mixture at the bottom of the wells. The plate was then incubated at 23° C. for 60 minutes. Plates were read on Perkin Elmer Envision 2104 instrument in TR-FRET mode using a 340 nm excitation filter, 520 nm fluorescence emission filter, and 490 or 495 nm terbium emission filter.
In the table below, activity is provided as follows: In the table below, activity is provided as follows: +++=IC50 less than 30 nM; ++=IC50 between 30 nM and 60 nM; +=IC50 greater than 60 nM.

LRRK2 G2019S enzyme, sequence (Q5S007 whole entry G2019S): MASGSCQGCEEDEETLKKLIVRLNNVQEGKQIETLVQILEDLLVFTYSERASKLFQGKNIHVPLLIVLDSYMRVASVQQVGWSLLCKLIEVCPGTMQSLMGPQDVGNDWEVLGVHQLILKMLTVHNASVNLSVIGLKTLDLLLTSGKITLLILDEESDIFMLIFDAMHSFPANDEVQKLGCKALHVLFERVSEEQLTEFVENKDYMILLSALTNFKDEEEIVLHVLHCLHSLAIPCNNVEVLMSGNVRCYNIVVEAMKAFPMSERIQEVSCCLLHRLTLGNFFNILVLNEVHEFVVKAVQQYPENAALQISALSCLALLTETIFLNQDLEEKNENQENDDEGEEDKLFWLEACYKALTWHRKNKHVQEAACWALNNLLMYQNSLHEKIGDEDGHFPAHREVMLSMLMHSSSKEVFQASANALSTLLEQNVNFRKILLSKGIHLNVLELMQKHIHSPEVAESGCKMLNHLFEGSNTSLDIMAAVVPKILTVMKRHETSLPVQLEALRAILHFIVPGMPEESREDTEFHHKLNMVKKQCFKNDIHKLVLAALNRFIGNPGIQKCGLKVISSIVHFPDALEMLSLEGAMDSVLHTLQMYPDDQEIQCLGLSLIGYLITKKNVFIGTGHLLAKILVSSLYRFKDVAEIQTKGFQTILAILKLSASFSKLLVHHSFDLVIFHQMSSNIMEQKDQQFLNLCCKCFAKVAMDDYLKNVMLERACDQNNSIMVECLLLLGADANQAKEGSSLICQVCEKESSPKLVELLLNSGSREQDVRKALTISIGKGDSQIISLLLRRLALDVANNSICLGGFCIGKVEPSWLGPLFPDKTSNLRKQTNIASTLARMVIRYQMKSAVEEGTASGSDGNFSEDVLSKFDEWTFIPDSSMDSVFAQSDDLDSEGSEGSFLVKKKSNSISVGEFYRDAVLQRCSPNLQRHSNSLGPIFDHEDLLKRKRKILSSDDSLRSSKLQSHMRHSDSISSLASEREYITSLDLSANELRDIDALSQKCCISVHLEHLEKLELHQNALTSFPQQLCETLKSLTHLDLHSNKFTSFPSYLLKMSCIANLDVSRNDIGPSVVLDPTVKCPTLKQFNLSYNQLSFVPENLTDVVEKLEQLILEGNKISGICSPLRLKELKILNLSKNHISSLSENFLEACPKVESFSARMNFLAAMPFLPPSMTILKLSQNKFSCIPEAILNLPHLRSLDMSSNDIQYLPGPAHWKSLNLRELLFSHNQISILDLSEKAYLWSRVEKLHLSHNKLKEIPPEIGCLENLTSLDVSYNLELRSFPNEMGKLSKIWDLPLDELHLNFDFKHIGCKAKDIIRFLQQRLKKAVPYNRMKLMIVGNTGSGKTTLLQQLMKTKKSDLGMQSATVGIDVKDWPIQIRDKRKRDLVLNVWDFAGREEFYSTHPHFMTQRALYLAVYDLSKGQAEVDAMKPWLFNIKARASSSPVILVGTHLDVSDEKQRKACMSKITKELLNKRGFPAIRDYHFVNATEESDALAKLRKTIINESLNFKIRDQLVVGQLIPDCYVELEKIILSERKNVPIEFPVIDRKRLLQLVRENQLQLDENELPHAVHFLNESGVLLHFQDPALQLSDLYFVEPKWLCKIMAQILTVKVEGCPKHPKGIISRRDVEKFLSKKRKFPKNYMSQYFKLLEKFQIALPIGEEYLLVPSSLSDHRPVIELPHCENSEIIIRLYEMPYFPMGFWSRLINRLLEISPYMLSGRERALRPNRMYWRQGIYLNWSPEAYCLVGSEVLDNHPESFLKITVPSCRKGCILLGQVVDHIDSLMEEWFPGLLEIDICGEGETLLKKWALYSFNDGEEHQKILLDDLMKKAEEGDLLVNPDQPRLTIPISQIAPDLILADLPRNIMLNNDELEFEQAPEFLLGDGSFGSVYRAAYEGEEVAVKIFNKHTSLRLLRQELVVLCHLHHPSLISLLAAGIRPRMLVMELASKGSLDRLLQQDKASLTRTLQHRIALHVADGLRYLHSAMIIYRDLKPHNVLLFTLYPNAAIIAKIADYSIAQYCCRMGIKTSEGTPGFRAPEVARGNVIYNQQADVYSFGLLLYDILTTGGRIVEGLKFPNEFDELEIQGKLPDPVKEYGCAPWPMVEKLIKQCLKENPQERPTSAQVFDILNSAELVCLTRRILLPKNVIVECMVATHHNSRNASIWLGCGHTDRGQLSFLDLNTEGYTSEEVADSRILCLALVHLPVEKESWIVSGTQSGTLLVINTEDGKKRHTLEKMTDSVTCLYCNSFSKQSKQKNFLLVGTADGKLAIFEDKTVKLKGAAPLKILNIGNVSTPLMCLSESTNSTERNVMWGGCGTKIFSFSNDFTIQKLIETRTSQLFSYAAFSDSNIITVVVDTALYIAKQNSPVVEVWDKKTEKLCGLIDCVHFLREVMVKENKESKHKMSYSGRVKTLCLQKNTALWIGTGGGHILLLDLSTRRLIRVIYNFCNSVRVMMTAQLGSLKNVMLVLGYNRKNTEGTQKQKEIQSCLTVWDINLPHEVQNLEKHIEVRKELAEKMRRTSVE

SMILES	IC50 [µM]
CCNc1nc(Nc2sc(C(=O)N3CCOCC3)nc2C)ncc1C(F)(F)F [Compound 24]	< 0.03
CC(C)(C(N)=O)c1nc(Cl)c(Nc2ncc(C(F)(F)F)c(NC3CC3)n2)s1 [Compound 34]	< 0.03
CCNc1nc(Nc2sc(C(=O)NC)nc2C)ncc1C(F)(F)F [Compound 28]	< 0.03
CNc1nc(Nc2sc(C(C)(C)C(N)=O)nc2C)ncc1C(F)(F)F [Compound 22]	< 0.03
CCNc1nc(Nc2cn(Cc3ccn(C)n3)c(C#N)c2C)ncc1C(F)(F)F [Compound 15, 4-((4-(ethylamino)-5-(trifluoromethyl)pyrimidin-2-yl)amino)-3-methyl-1-((1-methyl-1H-pyrazol-3-yl)methyl)-1H-pyrrole-2-carbonitrile]	< 0.03
[2H]C([2H])([2H])C1(c2nc(C3CC3)c(Nc3ncc(C(F)(F)F)c(NCC)n3)s2)CCNC1=O (single isomer, unassigned) [Compound 52]	< 0.03
CCNc1nc(Nc2sc(C(C)(C)C(N)=O)nc2C)ncc1C(F)(F)F [Compound 26]	< 0.03
CCNc1nc(Nc2sc(C(C)(C)C(N)=O)nc2Cl)ncc1C(F)(F)F [Compound 37]	< 0.03
Cc1nc(C2(c3nc[nH]n3)CC2)sc1Nc1ncc(C(F)(F)F)c(C2CC2)n1 [Compound 3]	< 0.03
Cc1nc(C(C)(C)C(N)=O)sc1Nc1ncc(C(F)(F)F)c(NC2CC2)n1 [Compound 29]	< 0.03
[2H]C([2H])([2H])C1(c2nc(C3CC3)c(Nc3ncc(Br)c(OC)n3)s2)CCNC1=O (single isomer, unassigned) [Compound 54]	< 0.03
CNc1nc(Nc2sc(C(C)(C)C#N)nc2C)ncc1C(F)(F)F [Compound 17, 2-methyl-2-(4-methyl-5-((4-(methylamino)-5-(trifluoromethyl)pyrimidin-2-yl)amino)thiazol-2-yl)propanenitrile]	< 0.03
CCNc1nc(Nc2sc(C(=O)N3CC4CCC(C3)O4)nc2C)ncc1C(F)(F)F [Compound 33]	< 0.03
CNc1nc(Nc2sc(C3(C#N)CC3)nc2C)ncc1C(F)(F)F [Compound 2]	< 0.03
CCNc1nc(Nc2sc(C(=O)N3CCC(F)(F)C3)nc2C)ncc1C(F)(F)F [Compound 10]	< 0.03
[2H]C([2H])([2H])N1CCC(c2nc(Cl)c(Nc3ncc(C(F)(F)F)c(NCC)n3)s2)(C([2H])([2H])[2H])C1=O (single isomer, unassigned) [Compound 46]	< 0.03
CNc1nc(Nc2sc(C(C)(C)C#N)nc2Cl)ncc1C(F)(F)F [Compound 36]	< 0.03
Cc1nc(C(C)(C)C(N)=O)sc1Nc1ncc(C(F)(F)F)c(C2CC2)n1 [Compound 30]	< 0.03
[2H]C([2H])([2H])N1CCC(c2nc(C)c(Nc3ncc(C(F)(F)F)c(NC)n3)s2)(C([2H])([2H])[2H])C1=O (stereo not shown) [Compound 23]	< 0.03
[2H]C([2H])([2H])C1(c2nc(C3CC3)c(Nc3ncc(C(F)(F)F)c(NC)n3)s2)CCNC1=O (single isomer, unassigned) [Compound 60]	< 0.03
Cc1nc(C(C)(C)c2nnn(C)n2)sc1Nc1ncc(C(F)(F)F)c(C2CC2)n1 [Compound 31]	< 0.03
CCNc1nc(Nc2sc(C3(C#N)CC3)nc2C)ncc1C(F)(F)F [Compound 32]	< 0.03

SMILES	IC50 [µM]
[2H]C([2H])([2H])C1(c2nc(Cl)c(Nc3ncc(Br)c(OC)n3)s2)CCNC1=O (single isomer, unassigned) [Compound 48]	< 0.03
CCNc1nc(Nc2sc(C(C)(C)C(N)=O)nc2Cl)ncc1Br [Compound 38]	< 0.03
[2H]C([2H])([2H])C1(c2nc(Cl)c(Nc3ncc(C(F)(F)F)c(NC)n3)s2)CCNC1=O (single isomer, unassigned) [Compound 42]	< 0.03
[2H]C([2H])([2H])C1(c2nc(C3CC3)c(Nc3ncc(Br)c(OC)n3)s2)CCNC1=O (single isomer, unassigned) [Compound 53]	< 0.03
CC(C)(C(N)=O)c1nc(Cl)c(Nc2ncc(Br)c(NC3CC3)n2)s1 [Compound 41]	< 0.03
[2H]C([2H])([2H])C1(c2nc(Cl)c(Nc3ncc(C(F)(F)F)c(NC)n3)s2)CCNC1=O (single isomer, unassigned) [Compound 43]	< 0.03
Cc1nc(C(C)(C)c2nc[nH]n2)sc1Nc1ncc(C(F)(F)F)c(C2CC2)n1 [Compound 1]	< 0.03
CCNc1nc(Nc2sc(C#N)nc2C)ncc1C(F)(F)F [Compound 27]	< 0.03
CC(C)(C(N)=O)c1nc(Cl)c(Nc2ncc(C(F)(F)F)c(NCC(F)F)n2)s1 [Compound 40]	< 0.03
[2H]C([2H])([2H])N1CCC(c2nc(Cl)c(Nc3ncc(C(F)(F)F)c(NC)n3)s2)(C([2H])([2H])[2H])C1=O (single isomer, unassigned) [Compound 45]	< 0.03
CCNc1nc(Nc2sc(C(C)(C)C#N)nc2Cl)ncc1C(F)(F)F [Compound 50]	< 0.03
CNc1nc(Nc2sc(C(C)(C)C#N)nc2C2CC2)ncc1C(F)(F)F [Compound 61]	< 0.03
CCNc1nc(Nc2cn(S(C)(=O)=O)c(C#N)c2C)ncc1C(F)(F)F [Compound 16, 4-((4-(ethylamino)-5-(trifluoromethyl)pyrimidin-2-yl)amino)-3-methyl-1-(methylsulfonyl)-1H-pyrrole-2-carbonitrile]	< 0.03
COc1nc(Nc2sc(C(C)(C)C(N)=O)nc2Cl)ncc1Br [Compound 39]	< 0.03
[2H]C([2H])([2H])C1(c2nc(Cl)c(Nc3ncc(Br)c(OC)n3)s2)CCNC1=O (single isomer, unassigned) [Compound 49]	< 0.03
CNc1nc(Nc2cn(C)c(C#N)c2C)ncc1C(F)(F)F [Compound 14, 1,3-dimethyl-4-((4-(methylamino)-5-(trifluoromethyl)pyrimidin-2-yl)amino)-1H-pyrrole-2-carbonitrile]	< 0.03
[2H]C([2H])([2H])N1CCC(c2nc(Cl)c(Nc3ncc(C(F)(F)F)c(NC)n3)s2)(C([2H])([2H])[2H])C1=O (single isomer, unassigned) [Compound 44]	< 0.03
[2H]C([2H])([2H])N1CCC(c2nc(Cl)c(Nc3ncc(C(F)(F)F)c(NCC)n3)s2)(C([2H])([2H])[2H])C1=O (single isomer, unassigned) [Compound 47]	< 0.03
CNc1nc(Nc2sc(C(C)(C)C(N)=O)nc2Cl)ncc1C(F)(F)F [Compound 25]	< 0.03
[2H]C([2H])([2H])C1(c2nc(C3CC3)c(Nc3ncc(C(F)(F)F)c(NCC)n3)s2)CCNC1=O (single isomer, unassigned) [Compound 51]	< 0.03
[2H]C([2H])([2H])C1(c2nc(C3CC3)c(Nc3ncc(C(F)(F)F)c(NC)n3)s2)CCNC1=O (single isomer, unassigned) [Compound 59]	< 0.03
